Literature values in US20090202626A1, “TREATMENT OF BLADDER DISEASES WITH A TLR7 ACTIVATOR” (priority 2008, published 2009).

Columns and labels:
superficial skin cancer = settings: in vivo
[1] = test system: orthotopic bladder cancer

With `CC(C)Cn1cnc2c(N)nc3ccccc3c21` [Imiquimod, imiquimod] as the compound, how does the “efficacy in superficial skin cancer” value (superficial skin cancer) read?
The value was “demonstrated efficacy”.

And the “mice that developed tumors” value ([1]; 100 μg once weekly, placebo 11 of 13 mice (85%))?
The value was 3 of 14.

What about the anti-tumor activity ([1]; orthotopic bladder cancer mouse model) of the same compound?
The anti-tumor activity was “potent anti-tumor activity”.

And the “effect on FCB bladder tumor” value (FCB bladder tumor; mice)?
The value was “cured mice”.

And the “effect on chemically induced bladder cancer” value (FCB bladder tumor; mouse, in vivo)?
The value was “inhibited”.
